Results published in patent US20260256792A1, “TREATMENT OF CHRONIC SPONTANEOUS URTICARIA BY ADMINISTERING (R)-2-[3-[4-AMINO-3-(2-FLUORO-4-PHENOXY-PHENYL)PYRAZOLO[3,4-D]PYRIMIDIN-1-YL]PIPERIDINE-1-CARBONYL]-4-METHYL-4-[4-(OXETAN-3-YL)PIPERAZIN-1-YL]PENT-2-ENENITRILE” (priority 2023, published 2026).

System: moderate-to-severe chronic spontaneous urticaria (CSU)
Assay: Phase 2 CSU study: hives severity score over 7 days (HSS7)
Format: in vivo, human
Set-up: key to HSS7 Change from baseline, Median / HSS7, Median / HSS7, Max / HSS7 Change from baseline, Q1 / HSS7 Change from baseline, Q3 / HSS7 Change from baseline, Max: 7-day sum of daily hive scores, each 0 = none to 3 = >50 hives
Source text: The study comprises a 12 week, randomized, double-blind, placebo-controlled, multi-center, dose-ranging efficacy and safety phase, followed by a 40 week open label extension (OLE) phase (see FIG. 1).
The study consists of three phases and an optional OLE phase.
The UAS is a validated PRO measure. The daily UAS is the sum of the daily Hive Severity Score (HSS, ranging from 0=None to 3=more than 50 hives) and the daily Itch Severity Score (ISS, ranging from 0=None to 3=intense), the 2 key urticaria signs and symptoms which are wheals and itch. The daily UAS scores range from 0 to 6 point/day. Daily UAS scores are summed over 7-day period to create the UAS7, ranging from 0 to 42, and are composed of the HSS7 and ISS7 components. […] Patients were to complete the UAS using the e-diary. The e-diary was to be used once daily on the same time of each day recording of participant's answers to the urticaria activity score over 7 days (UAS7) questionnaire. For participants who entered the OLE phase, their answers to the UAS7 questionnaire were also to be collected from Week 20 to Week24 and from Week 48 to Week 52.
The following secondary endpoints were to be analyzed using the same approach as for the primary endpoint: • Change from baseline in UAS7 at Week 4 • Change from baseline in UAS7 at Week 12 (for US and US reference countries) • Change from baseline in ISS7 at Week 12 (except US and US reference countries) • Change from baseline in HSS7 at Week 12

[1] = Week 1, 400 mg BID, Omalizumab-Naïve Population
[2] = Week 1, 400 mg BID, Patients with Prior Omalizumab Use
[3] = Week 1, 400 mg QPM, Omalizumab-Naïve Population
[4] = Week 1, 400 mg QPM, Patients with Prior Omalizumab Use
[5] = Week 1, 400 mg TID, Omalizumab-Naïve Population
[6] = Week 1, 400 mg TID, Patients with Prior Omalizumab Use
[7] = Week 2, 400 mg BID, Omalizumab-Naïve Population
[8] = Week 2, 400 mg BID, Patients with Prior Omalizumab Use
[9] = Week 2, 400 mg QPM, Omalizumab-Naïve Population
[10] = Week 2, 400 mg QPM, Patients with Prior Omalizumab Use
[11] = Week 2, 400 mg TID, Omalizumab-Naïve Population
[12] = Week 2, 400 mg TID, Patients with Prior Omalizumab Use
[13] = Week 3, 400 mg BID, Omalizumab-Naïve Population
[14] = Week 3, 400 mg BID, Patients with Prior Omalizumab Use
[15] = Week 3, 400 mg QPM, Omalizumab-Naïve Population
[16] = Week 3, 400 mg QPM, Patients with Prior Omalizumab Use
[17] = Week 3, 400 mg TID, Omalizumab-Naïve Population
[18] = Week 3, 400 mg TID, Patients with Prior Omalizumab Use

With CC(C)(C=C(C#N)C(=O)N1CCC[C@@H](n2nc(-c3ccc(Oc4ccccc4)cc3F)c3c(N)ncnc32)C1)N1CCN(C2COC2)CC1 [rilzabrutinib, (R)-2-[3-[4-amino-3-(2-fluoro-4-phenoxy-phenyl)pyrazolo[3,4-d]pyrimidin-1-yl]piperidine-1-carbonyl]-4-methyl-4-[4-(oxetan-3-yl)piperazin-1-yl]pent-2-enenitrile] the “HSS7 change from baseline at Week 12, LS Mean Diff vs. placebo” value (Omalizumab-naïve Population, 400 mg TID, ANCOVA) was −3.24, the “HSS7, Mean (SD)” value [1] was 9.26 (5.76) and the “HSS7 Change from baseline, Mean (SD)” value [1] was −5.02 (4.53). For the same compound, the “HSS7 Change from baseline, Median” value [1] was −5.00, the “HSS7 Percent change from baseline, Mean (SD)” value (“HSS7 Percent change … (SD)” for short) [1] was −36.53 (34.65) % and the “HSS7 Percent change from baseline, Median” value (“HSS7 Percent change … Median” for short) [1] was −28.57%. For the same compound, the “HSS7, Mean (SD)” value [2] was 9.67 (6.41), the “HSS7 Change from baseline, Mean (SD)” value [2] was −5.50 (6.41) and the “HSS7 Change from baseline, Median” value [2] was −3.00. For the same compound, the “HSS7 Percent change … (SD)” value [2] was −34.45 (41.48) %, the “HSS7 Percent change … Median” value [2] was −17.65% and the “HSS7, Mean (SD)” value [3] was 10.73 (4.90). The “HSS7 Change from baseline, Mean (SD)” value [3] was −4.00 (4.92), the “HSS7 Change from baseline, Median” value [3] was −3.00 and the “HSS7 Percent change … (SD)” value [3] was −25.31 (29.00) %. For the same compound, the “HSS7 Percent change … Median” value [3] was −20.00%, the “HSS7, Mean (SD)” value [4] was 12.00 (NC) and the “HSS7, Median” value [4] was 12.00. The “HSS7 Change from baseline, Mean (SD)” value [4] was −8.00 (NC), the “HSS7 Change from baseline, Median” value [4] was −8.00 and the “HSS7 Percent change … (SD)” value [4] was −40.00 (NC) %. For the same compound, the “HSS7 Percent change … Median” value [4] was −40.00%, the “HSS7, Mean (SD)” value [5] was 8.26 (4.91) and the “HSS7, Median” value [5] was 8.00. For the same compound, the “HSS7 Change from baseline, Mean (SD)” value [5] was −5.40 (5.44), the “HSS7 Change from baseline, Median” value [5] was −5.00 and the “HSS7 Percent change … (SD)” value [5] was −36.74 (35.15) %. The “HSS7 Percent change … Median” value [5] was −33.33%, the “HSS7, Mean (SD)” value [6] was 4.83 (3.31) and the “HSS7, Median” value [6] was 4.50. For the same compound, the “HSS7 Change from baseline, Mean (SD)” value [6] was −11.19 (4.74), the “HSS7 Percent change … (SD)” value [6] was −70.33 (16.48) % and the “HSS7 Percent change … Median” value [6] was −71.43%. The “HSS7, Mean (SD)” value [7] was 9.27 (5.49), the “HSS7, Median” value [7] was 7.50 and the “HSS7 Change from baseline, Mean (SD)” value [7] was −5.10 (4.74). For the same compound, the “HSS7 Change from baseline, Median” value [7] was 5.50, the “HSS7 Percent change … (SD)” value [7] was −35.29 (34.55) % and the “HSS7 Percent change … Median” value [7] was −37.50%. The “HSS7, Mean (SD)” value [8] was 8.17 (7.08), the “HSS7, Median” value [8] was 9.50 and the “HSS7 Change from baseline, Mean (SD)” value [8] was −7.00 (8.15). The “HSS7 Change from baseline, Median” value [8] was −4.50, the “HSS7 Percent change … (SD)” value [8] was −42.16 (46.38) % and the “HSS7 Percent change … Median” value [8] was −26.47%. For the same compound, the “HSS7, Mean (SD)” value [9] was 10.90 (4.97), the “HSS7 Change from baseline, Mean (SD)” value [9] was −3.83 (4.91) and the “HSS7 Change from baseline, Median” value [9] was 3.00. The “HSS7 Percent change … (SD)” value [9] was −23.50 (30.60) %, the “HSS7 Percent change … Median” value [9] was −21.43% and the “HSS7, Mean (SD)” value [10] was 13.00 (NC). For the same compound, the “HSS7, Median” value [10] was 13.00, the “HSS7 Change from baseline, Mean (SD)” value [10] was −7.00 (NC) and the “HSS7 Change from baseline, Median” value [10] was −7.00. For the same compound, the “HSS7 Percent change … (SD)” value [10] was −35.00 (NC) %, the “HSS7 Percent change … Median” value [10] was −35.00% and the “HSS7, Mean (SD)” value [11] was 7.25 (5.05). For the same compound, the “HSS7, Median” value [11] was 7.00, the “HSS7 Change from baseline, Mean (SD)” value [11] was −6.40 (5.94) and the “HSS7 Change from baseline, Median” value [11] was −6.00. The “HSS7 Percent change … (SD)” value [11] was −44.30 (37.78) %, the “HSS7 Percent change … Median” value [11] was −42.86% and the “HSS7, Mean (SD)” value [12] was 2.83 (3.31). The “HSS7, Median” value [12] was 1.50, the “HSS7 Change from baseline, Mean (SD)” value [12] was −13.19 (5.74) and the “HSS7 Change from baseline, Median” value [12] was −14.00. For the same compound, the HSS7 Percent change from baseline, Mean (SD) [12] was -82.7%, the “HSS7 Percent change … Median” value [12] was −81.38% and the “HSS7, Mean (SD)” value [13] was 8.55 (6.09). For the same compound, the “HSS7, Median” value [13] was 7.00, the “HSS7 Change from baseline, Mean (SD)” value [13] was −5.73 (5.31) and the “HSS7 Change from baseline, Median” value [13] was −5.00. For the same compound, the “HSS7 Percent change … (SD)” value [13] was −40.65 (36.39) %, the “HSS7 Percent change … Median” value [13] was −41.67% and the “HSS7, Mean (SD)” value [14] was 7.67 (7.00). For the same compound, the “HSS7, Median” value [14] was 7.50, the “HSS7 Change from baseline, Mean (SD)” value [14] was −7.50 (8.22) and the “HSS7 Change from baseline, Median” value [14] was −6.00. The “HSS7 Percent change … (SD)” value [14] was −45.10 (46.71) %, the “HSS7 Percent change … Median” value [14] was −35.29% and the “HSS7, Mean (SD)” value [15] was 10.41 (4.97). The “HSS7, Median” value [15] was 9.00, the “HSS7 Change from baseline, Mean (SD)” value [15] was −4.32 (4.60) and the “HSS7 Change from baseline, Median” value [15] was −2.00. For the same compound, the “HSS7 Percent change … (SD)” value [15] was −27.98 (28.68) %, the “HSS7 Percent change … Median” value [15] was −28.57% and the “HSS7, Mean (SD)” value [16] was 10.00 (NC). For the same compound, the “HSS7 Change from baseline, Mean (SD)” value [16] was −10.00 (NC), the “HSS7 Change from baseline, Median” value [16] was −10.00 and the “HSS7 Percent change … (SD)” value [16] was −50.00 (NC) %. The “HSS7 Percent change … Median” value [16] was −50.00%, the “HSS7, Mean (SD)” value [17] was 7.03 (4.82) and the “HSS7, Median” value [17] was 7.00. The “HSS7 Change from baseline, Mean (SD)” value [17] was −6.63 (6.22), the “HSS7 Change from baseline, Median” value [17] was −7.00 and the “HSS7 Percent change … (SD)” value [17] was −47.46 (36.18) %. For the same compound, the “HSS7 Percent change … Median” value [17] was −48.81%, the “HSS7, Mean (SD)” value [18] was 3.39 (2.63) and the “HSS7, Median” value [18] was 2.67. For the same compound, the “HSS7 Change from baseline, Mean (SD)” value [18] was −12.64 (6.13), the “HSS7 Change from baseline, Median” value [18] was −14.50 and the “HSS7 Percent change … (SD)” value [18] was −76.71 (14.38) %. The “HSS7 Percent change … Median” value [18] was −71.43%.
